Measurements from patent publication US12077503B2, “Substituted cyclic amides and their use as herbicides” (FMC CORPORATION, priority 2015, dated 2024).
Like-named read-outs stand apart in the source and are kept apart here.

Assays:
Type in all cases: in vivo
[1] = tested on: Kochia (Kochia scoparia); assay: Test A preemergence; conditions: Bassia scoparia, pre-emergence, 240 h; for pest or weed control at 125 g/ha: 125 g ai/ha; for pest or weed control at 500 g/ha: 500 g ai/ha
In short: (§1)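 Preemergence soil spray on seeded pots or post-emergence spray on 1–2 leaf plants, in loam–sand blend. Greenhouse ~10 d. Visual rating 0–100 against untreated plants.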

[2] = tested on: barnyardgrass (Echinochloa crus-galli); assay: Test A preemergence; conditions: Echinochloa crus-galli, pre-emergence, 240 h; for pest or weed control at 125 g/ha: 125 g ai/ha; for pest or weed control at 500 g/ha: 500 g ai/ha
In short: as §1

[3] = tested on: giant foxtail (Setaria faberii); assay: Test A preemergence; conditions: Setaria faberi, pre-emergence, 240 h; for pest or weed control at 125 g/ha: 125 g ai/ha; for pest or weed control at 500 g/ha: 500 g ai/ha
In short: as §1

[4] = tested on: pigweed (Amaranthus retroflexus); assay: Test A preemergence; conditions: Amaranthus retroflexus, pre-emergence, 240 h; for pest or weed control at 125 g/ha: 125 g ai/ha; for pest or weed control at 500 g/ha: 500 g ai/ha
[5] = tested on: ragweed (common ragweed, Ambrosia elatior); assay: Test A preemergence; conditions: Ambrosia artemisiifolia, pre-emergence, 240 h; for pest or weed control at 125 g/ha: 125 g ai/ha; for pest or weed control at 500 g/ha: 500 g ai/ha
In short: as §1

[6] = tested on: ryegrass, Italian (Italian ryegrass, Lolium multiflorum); assay: Test A preemergence; conditions: Lolium multiflorum, pre-emergence, 240 h; for pest or weed control at 125 g/ha: 125 g ai/ha; for pest or weed control at 500 g/ha: 500 g ai/ha
In short: as §1

[7] = tested on: blackgrass (Alopecurus myosuroides); assay: Test A postemergence; conditions: Alopecurus myosuroides, post-emergence, 240 h, postemergence; for pest or weed control at 125 g/ha: 125 g ai/ha; for pest or weed control at 500 g/ha: 500 g ai/ha
In short: as §1

[8] = tested on: corn (Zea mays); assay: Test A postemergence; conditions: Zea mays, post-emergence, 240 h, postemergence; for plant injury at 125 g/ha: 125 g ai/ha
In short: as §1

[9] = tested on: pigweed (Amaranthus retroflexus); assay: Test A postemergence; conditions: Amaranthus retroflexus, post-emergence, 240 h, postemergence; for pest or weed control at 125 g/ha: 125 g ai/ha
In short: as §1

[10] = tested on: ragweed (common ragweed, Ambrosia elatior); assay: Test A postemergence; conditions: Ambrosia artemisiifolia, post-emergence, 240 h, postemergence; for pest or weed control at 125 g/ha: 125 g ai/ha
In short: as §1

[11] = tested on: ryegrass, Italian (Italian ryegrass, Lolium multiflorum); assay: Test A postemergence; conditions: Lolium multiflorum, post-emergence, 240 h, postemergence; for pest or weed control at 125 g/ha: 125 g ai/ha
In short: as §1

[12] = tested on: barnyardgrass (Echinochloa crus-galli); assay: Test B flooded paddy test; conditions: Echinochloa crus-galli, 250 g ai/ha, Flood; 0 to 100 scale where 0 is no effect and 100 is complete control; read-out: Barnyardgrass plant response rating
In short: (§2)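 Rating scale 0–100 (visual, vs untreated controls) after a 13–15 d greenhouse period; application to the flood layer, 3 cm above soil and maintained; plants at 2-leaf stage when treated.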

[13] = tested on: ducksalad (Heteranthera limosa); assay: Test B flooded paddy test; conditions: Heteranthera limosa, 250 g ai/ha, Flood; 0 to 100 scale where 0 is no effect and 100 is complete control; read-out: Ducksalad plant response rating
In short: as §2

[14] = tested on: rice (Oryra sativa); assay: Test B flooded paddy test; conditions: Oryza sativa, 250 g ai/ha, Flood; 0 to 100 scale where 0 is no effect and 100 is complete control; read-out: Rice plant response rating
In short: as §2

[15] = tested on: sedge, umbrella (small-flower umbrella sedge, Cyperus difformis); assay: Test B flooded paddy test; conditions: Cyperus difformis, 250 g ai/ha, Flood; 0 to 100 scale where 0 is no effect and 100 is complete control; read-out: Sedge, Umbrella plant response rating
In short: as §2

Structure (SMILES): Cc1cc([C@H]2CNC(=O)[C@@H]2C(=O)Nc2ccc(F)cc2F)ccc1C(F)(F)F [Compound 1043]
- pest or weed control at 125 g/ha ([1]; Preemergence, visual injury rating after approximately 10 d, read-out: Kochia plant response rating (0 to 100 scale, 0 is no effect, 100 is complete control)): 60%
- pest or weed control at 500 g/ha ([1]; preemergence, visual injury rating about 10 d after treatment, 0 to 100 scale (0 no effect, 100 complete control), read-out: Kochia plant response rating): 70%
- pest or weed control at 125 g/ha ([2]; Preemergence, visual injury rating after approximately 10 d, read-out: Barnyardgrass plant response rating (0 to 100 scale, 0 is no effect, 100 is complete control)): 80%
- pest or weed control at 500 g/ha ([2]; preemergence, visual injury rating about 10 d after treatment, 0 to 100 scale (0 no effect, 100 complete control), read-out: Barnyardgrass plant response rating): 90%
- pest or weed control at 125 g/ha ([3]; Preemergence, visual injury rating after approximately 10 d, read-out: Foxtail, Giant plant response rating (0 to 100 scale, 0 is no effect, 100 is complete control)): 70%
- pest or weed control at 500 g/ha ([3]; preemergence, visual injury rating about 10 d after treatment, 0 to 100 scale (0 no effect, 100 complete control), read-out: Foxtail, Giant plant response rating): 90%
- pest or weed control at 125 g/ha ([4]; Preemergence, visual injury rating after approximately 10 d, read-out: Pigweed plant response rating (0 to 100 scale, 0 is no effect, 100 is complete control)): 0%
- pest or weed control at 500 g/ha ([4]; preemergence, visual injury rating about 10 d after treatment, 0 to 100 scale (0 no effect, 100 complete control), read-out: Pigweed plant response rating): 20%
- pest or weed control at 125 g/ha ([5]; Preemergence, visual injury rating after approximately 10 d, read-out: Ragweed plant response rating (0 to 100 scale, 0 is no effect, 100 is complete control)): 0%
- pest or weed control at 500 g/ha ([5]; preemergence, visual injury rating about 10 d after treatment, 0 to 100 scale (0 no effect, 100 complete control), read-out: Ragweed plant response rating): 50%
- pest or weed control at 125 g/ha ([6]; Preemergence, visual injury rating after approximately 10 d, read-out: Ryegrass, Italian plant response rating (0 to 100 scale, 0 is no effect, 100 is complete control)): 20%
- pest or weed control at 500 g/ha ([6]; preemergence, visual injury rating about 10 d after treatment, 0 to 100 scale (0 no effect, 100 complete control), read-out: Ryegrass, Italian plant response rating): 50%
- pest or weed control at 125 g/ha ([7]; visual injury on 0 to 100 scale (0 no effect, 100 complete control), approx. 10 d, read-out: Blackgrass plant response rating): 20%
- pest or weed control at 500 g/ha ([7]; visual injury, 0 to 100 scale (0 no effect, 100 complete control), approx. 10 d, read-out: Plant response rating, Blackgrass): 30%
- plant injury at 125 g/ha ([8]; visual injury on 0 to 100 scale (0 no effect, 100 complete control), approx. 10 d, read-out: Corn plant response rating): 20%
- Corn plant response rating (crop injury, 0 = no effect, 100 = complete kill) at 500 g/ha ([8]; 500 g ai/ha, visual injury, 0 to 100 scale (0 no effect, 100 complete control), approx. 10 d): 60%
- pest or weed control at 125 g/ha ([9]; visual injury on 0 to 100 scale (0 no effect, 100 complete control), approx. 10 d, read-out: Pigweed plant response rating): 0%
- pest or weed control at 125 g/ha ([10]; visual injury on 0 to 100 scale (0 no effect, 100 complete control), approx. 10 d, read-out: Ragweed plant response rating): 0%
- pest or weed control at 125 g/ha ([11]; visual injury on 0 to 100 scale (0 no effect, 100 complete control), approx. 10 d, read-out: Ryegrass, Italian plant response rating): 0%
- pest or weed control at 250 g/ha [12]: 0%
- pest or weed control at 250 g/ha [13]: 90%
- pest or weed control at 250 g/ha [14]: 0%
- pest or weed control at 250 g/ha [15]: 0%

Structure (SMILES): Cc1ccc([C@H]2CCN(C)C(=O)[C@@H]2C(=O)Nc2ccc(F)c(F)c2F)cc1 [Compound 1221]
- pest or weed control at 125 g/ha ([1]; preemergence, visual injury rating, 0 to 100 scale where 0 is no effect and 100 is complete control, approximately 10 d, read-out: Kochia plant response rating): 40%
- pest or weed control at 500 g/ha ([1]; preemergence, 0 to 100 scale where 0 is no effect and 100 is complete control, read-out: Kochia plant response rating): 50%
- pest or weed control at 125 g/ha ([2]; preemergence, visual injury rating, 0 to 100 scale where 0 is no effect and 100 is complete control, approximately 10 d, read-out: Barnyardgrass plant response rating): 90%
- pest or weed control at 500 g/ha ([2]; preemergence, 0 to 100 scale where 0 is no effect and 100 is complete control, read-out: Barnyardgrass plant response rating): 100%
- pest or weed control at 125 g/ha ([3]; preemergence, visual injury rating, 0 to 100 scale where 0 is no effect and 100 is complete control, approximately 10 d, read-out: Foxtail, Giant plant response rating): 90%
- pest or weed control at 500 g/ha ([3]; preemergence, 0 to 100 scale where 0 is no effect and 100 is complete control, read-out: Foxtail, Giant plant response rating): 100%
- pest or weed control at 125 g/ha ([4]; preemergence, visual injury rating, 0 to 100 scale where 0 is no effect and 100 is complete control, approximately 10 d, read-out: Pigweed plant response rating): 0%
- pest or weed control at 500 g/ha ([4]; preemergence, 0 to 100 scale where 0 is no effect and 100 is complete control, read-out: Pigweed plant response rating): 50%
- pest or weed control at 125 g/ha ([5]; preemergence, visual injury rating, 0 to 100 scale where 0 is no effect and 100 is complete control, approximately 10 d, read-out: Ragweed plant response rating): 20%
- pest or weed control at 500 g/ha ([5]; preemergence, 0 to 100 scale where 0 is no effect and 100 is complete control, read-out: Ragweed plant response rating): 70%
- pest or weed control at 125 g/ha ([6]; preemergence, visual injury rating, 0 to 100 scale where 0 is no effect and 100 is complete control, approximately 10 d, read-out: Ryegrass, Italian plant response rating): 20%
- pest or weed control at 500 g/ha ([6]; preemergence, 0 to 100 scale where 0 is no effect and 100 is complete control, read-out: Ryegrass, Italian plant response rating): 80%
- pest or weed control at 125 g/ha ([7]; visual injury vs untreated controls after approx. 10 d, 0 = no effect, 100 = complete control, read-out: Blackgrass plant response rating (0 to 100 scale)): 60%
- pest or weed control at 500 g/ha ([7]; 0 to 100 scale, 0 is no effect, 100 is complete control, read-out: Blackgrass plant response rating): 70%
- plant injury at 125 g/ha ([8]; visual injury vs untreated controls after approx. 10 d, 0 = no effect, 100 = complete control, read-out: Corn plant response rating (0 to 100 scale)): 0%
- plant injury at 500 g/ha ([8]; 500 g ai/ha, 0 to 100 scale, 0 is no effect, 100 is complete control, read-out: Corn plant response rating): 60%
- pest or weed control at 125 g/ha ([9]; visual injury vs untreated controls after approx. 10 d, 0 = no effect, 100 = complete control, read-out: Pigweed plant response rating (0 to 100 scale)): 0%
- pest or weed control at 500 g/ha ([9]; 500 g ai/ha, 0 to 100 scale, 0 is no effect, 100 is complete control, read-out: Pigweed plant response rating): 0%
- pest or weed control at 125 g/ha ([10]; visual injury vs untreated controls after approx. 10 d, 0 = no effect, 100 = complete control, read-out: Ragweed plant response rating (0 to 100 scale)): 0%
- pest or weed control at 500 g/ha ([10]; 500 g ai/ha, 0 to 100 scale, 0 is no effect, 100 is complete control, read-out: Ragweed plant response rating): 20%
- pest or weed control at 125 g/ha ([11]; visual injury vs untreated controls after approx. 10 d, 0 = no effect, 100 = complete control, read-out: Ryegrass, Italian plant response rating (0 to 100 scale)): 20%
- pest or weed control at 500 g/ha ([11]; 500 g ai/ha, 0 to 100 scale, 0 is no effect, 100 is complete control, read-out: Ryegrass, Italian plant response rating): 70%
- pest or weed control at 250 g/ha [12]: 85%
- pest or weed control at 250 g/ha [13]: 100%
- pest or weed control at 250 g/ha [14]: 0%
- pest or weed control at 250 g/ha [15]: 0%
